In one assay the target is T1, PIP4K2C (Homo sapiens, UniProt Q8TBX8).
T1 sequence (Q8TBX8 1-421): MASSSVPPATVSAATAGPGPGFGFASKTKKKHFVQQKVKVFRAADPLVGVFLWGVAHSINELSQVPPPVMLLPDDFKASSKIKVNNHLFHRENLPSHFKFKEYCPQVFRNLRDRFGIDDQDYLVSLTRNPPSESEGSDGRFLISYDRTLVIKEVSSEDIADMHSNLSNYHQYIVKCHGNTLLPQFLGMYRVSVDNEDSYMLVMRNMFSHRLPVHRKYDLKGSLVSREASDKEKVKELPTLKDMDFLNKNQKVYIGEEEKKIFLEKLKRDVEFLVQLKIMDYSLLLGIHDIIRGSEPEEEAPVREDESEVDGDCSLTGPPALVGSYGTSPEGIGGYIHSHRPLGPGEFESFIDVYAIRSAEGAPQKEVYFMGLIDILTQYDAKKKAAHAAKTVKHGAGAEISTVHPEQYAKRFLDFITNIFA
The assay is described as follows: HiBiT PIP4K2C degradation assay in MOLT-4 cells (endogenous PIP4K2C C-terminally tagged with HiBiT). The assay is classed as cell-based. The arrangement: untagged in primary human PBMCs and monocyte-derived dendritic cells. The following applies: 6 hours of incubation time, rather than 24 hours; MOLT-4, top concentration 10 micromolar; read-out: HiBIT-degradation MOLT4 PIP4k2C DC50 (6 hours, marked *). The gist of the method:
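DC50 derived by Hill fit of luminescence from Nano-Glo HiBiT lytic detection. Cells were HiBiT knock-in MOLT-4 (C-terminal tag on endogenous PIP4K2C), exposed 6 h or 24 h at 37 C to compound, top concentration 10 micromolar, 3-fold steps, 10 points, duplicates.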
(With HiBiT, luminescence reflects the tagged protein that the partner subunit can reach.)
In general, DC50 refers to the midpoint of the concentration-degradation curve. Consider `Cn1nc(C2CCC(=O)NC2=O)c2ccc(N3CCN(CC4CCN(C(=O)O[C@H]5CC[C@H](Nc6ncc(F)c(-c7cccc(-c8ccccc8)c7)n6)CC5)CC4)CC3)cc21` (stereo partly drawn) [Compound 643, trans-4-((4-([1,1′-biphenyl]-3-yl)-5-fluoropyrimidin-2-yl)amino)cyclohexyl 4-((4-(3-(2,6-dioxopiperidin-3-yl)-1-methyl-1H-indazol-6-yl)piperazin-1-yl)methyl)piperidine-1-carboxylate], for which the DC50 is < 0.5 µM.
`O=C1CCC(Nc2ccc(C3CCN(C[C@H]4CC[C@H](COC(=O)N5CCC(Nc6ncc(F)c(-c7cccc(-n8ccccc8=O)c7)n6)CC5)CC4)CC3)c(F)c2)C(=O)N1` (stereo partly drawn) [Compound 644, trans-(4-((4-(4-((2,6-dioxopiperidin-3-yl)amino)-2-fluorophenyl)piperidin-1-yl)methyl)cyclohexyl)methyl 4-((5-fluoro-4-(3-(2-oxopyridin-1 (2H)-yl)phenyl)pyrimidin-2-yl)amino)piperidine-1-carboxylate]: the 50% degradation concentration (DC50) is < 0.5 µM.
The same measure, in the same setting: as for `O=C1CCC(Nc2ccc(N3CCC(N4CCC(C(=O)N[C@H]5CC[C@H](Nc6ncc(F)c(-c7cccc(N8CCOCC8)c7)n6)CC5)CC4)CC3)c(F)c2)C(=O)N1` (stereo partly drawn) [Compound 645, trans-1′-(4-((2,6-dioxopiperidin-3-yl)amino)-2-fluorophenyl)-N-(4-((5-fluoro-4-(3-morpholinophenyl)pyrimidin-2-yl)amino)cyclohexyl)-[1,4′-bipiperidine]-4-carboxamide], the figure is < 0.5 µM.
On the same count and under the same terms, to `Cn1nc(C2CCC(=O)NC2=O)c2ccc(C3CCN(CC4(O)CCN(C(=O)O[C@H]5CC[C@H](Nc6ncc(F)c(-c7cccc(-c8ccccc8)c7)n6)CC5)CC4)CC3)cc21` (stereo partly drawn) [Compound 646, trans-4-((4-([1,1′-biphenyl]-3-yl)-5-fluoropyrimidin-2-yl)amino)cyclohexyl 4-((4-(3-(2,6-dioxopiperidin-3-yl)-1-methyl-1H-indazol-6-yl)piperidin-1-yl)methyl)-4-hydroxypiperidine-1-carboxylate] belongs < 0.5 µM.
Regarding `Cn1nc(C2CCC(=O)NC2=O)c2ccc(C3CCN(CC4CCN(C(=O)O[C@H]5CC[C@H](Nc6ncc(F)c(-c7cccc(-c8ccccc8)c7)n6)CC5)CC4)CC3)cc21` (stereo partly drawn) [Compound 647, trans-4-((4-([1,1′-biphenyl]-3-yl)-5-fluoropyrimidin-2-yl)amino)cyclohexyl 4-((4-(3-(2,6-dioxopiperidin-3-yl)-1-methyl-1H-indazol-6-yl)piperidin-1-yl)methyl)piperidine-1-carboxylate], the DC50 was < 0.5 µM.
In the case of `O=C1CCC(Nc2ccc(C3CCN(C4CCN(C(=O)O[C@H]5CC[C@H](Nc6ncc(F)c(-c7cccc(-n8ccccc8=O)c7)n6)CC5)CC4(F)F)CC3)c(F)c2)C(=O)N1` (stereo partly drawn) [Compound 648, trans-4-((5-fluoro-4-(3-(2-oxopyridin-1 (2H)-yl)phenyl)pyrimidin-2-yl)amino)cyclohexyl 4-(4-((2,6-dioxopiperidin-3-yl)amino)-2-fluorophenyl)-3′,3′-difluoro-[1,4′-bipiperidine]-1′-carboxylate], the DC50 was > 5 µM.
`O=C1CCC(Nc2ccc(N3CCC(N4CCC(C(=O)N[C@H]5CC[C@H](Nc6ncc(F)c(-c7cccc(-c8ccccc8)c7)n6)CC5)CC4)CC3)c(F)c2)C(=O)N1` (stereo partly drawn) [Compound 649, trans-N-(4-((4-([1,1′-biphenyl]-3-yl)-5-fluoropyrimidin-2-yl)amino)cyclohexyl)-1′-(4-((2,6-dioxopiperidin-3-yl)amino)-2-fluorophenyl)-[1,4′-bipiperidine]-4-carboxamide]: the DC50 was < 0.5 µM.
On the same count and under the same terms, as for `O=C1CCC(Nc2ccc(N3CCN([C@H]4CC[C@H](CC(=O)N5CCC(Nc6ncc(F)c(-c7cccc(-n8ccccc8=O)c7)n6)CC5)CC4)CC3)c(F)c2)C(=O)N1` (stereo partly drawn) [Compound 650, trans-3-((3-fluoro-4-(4-(4-(2-(4-((5-fluoro-4-(3-(2-oxopyridin-1 (2H)-yl)phenyl)pyrimidin-2-yl)amino)piperidin-1-yl)-2-oxoethyl)cyclohexyl)piperazin-1-yl)phenyl)amino)piperidine-2,6-dione], the figure is > 5 µM; as for `O=C1CCC(Nc2ccc(C3CCN(C4CCN(C(=O)O[C@H]5CC[C@H](Nc6ncc(F)c(-c7cccc(-c8ccccc8)c7)n6)CC5)CC4)CC3)c(F)c2)C(=O)N1` (stereo partly drawn) [Compound 651, trans-4-((4-([1,1′-biphenyl]-3-yl)-5-fluoropyrimidin-2-yl)amino)cyclohexyl 4-(4-((2,6-dioxopiperidin-3-yl)amino)-2-fluorophenyl)-[1,4′-bipiperidine]-1′-carboxylate], < 0.5 µM; as for `CN(C(=O)[C@H]1CC[C@H](N2CCC(c3ccc(NC4CCC(=O)NC4=O)cc3F)CC2)CC1)[C@H]1CC[C@H](Nc2ncc(F)c(-c3cccc(-n4ccccc4=O)c3)n2)CC1` (stereo partly drawn) [Compound 653, trans-4-(4-(4-((2,6-dioxopiperidin-3-yl)amino)-2-fluorophenyl)piperidin-1-yl)-N-((trans)-4-((5-fluoro-4-(3-(2-oxopyridin-1 (2H)-yl)phenyl)pyrimidin-2-yl)amino)cyclohexyl)-N-methylcyclohexane-1-carboxamide], < 0.5 µM.
As for `O=C1CCC(Nc2ccc(C3CCN(C[C@H]4CC[C@H](C(=O)N5CCC(Nc6ncc(F)c(-c7cccc(-c8ccc[nH]c8=O)c7)n6)CC5)CC4)CC3)c(F)c2)C(=O)N1` (stereo partly drawn) [Compound 654, 3-((3-fluoro-4-(1-(((trans)-4-(4-((5-fluoro-4-(3-(2-oxo-1,2-dihydropyridin-3-yl)phenyl)pyrimidin-2-yl)amino)piperidine-1-carbonyl)cyclohexyl)methyl)piperidin-4-yl)phenyl)amino)piperidine-2,6-dione], the DC50 was < 0.5 µM.
Take `O=C1CCC(Nc2ccc(N3CCC(N4CCC(C(=O)N[C@H]5CC[C@H](Nc6ncc(F)c(-c7cccc(N8CCOCC8)c7)n6)CC5)CC4)C(F)C3)c(F)c2)C(=O)N1` (some centres unmarked) [Compound 655, 1′-(4-((2,6-dioxopiperidin-3-yl)amino)-2-fluorophenyl)-3′-fluoro-N-((1r,4r)-4-((5-fluoro-4-(3-morpholinophenyl)pyrimidin-2-yl)amino)cyclohexyl)-[1,4′-bipiperidine]-4-carboxamide]: the DC50 is < 0.5 µM.
`O=C1CCC(Nc2ccc(N3CCC(N4CCC(C(=O)N[C@H]5CC[C@H](Nc6ncc(F)c(-c7cccc(-c8ccccc8)c7)n6)CC5)CC4)C(F)C3)c(F)c2)C(=O)N1` (some centres unmarked) [Compound 656, N-((1r,4r)-4-((4-([1,1′-biphenyl]-3-yl)-5-fluoropyrimidin-2-yl)amino)cyclohexyl)-1′-(4-((2,6-dioxopiperidin-3-yl)amino)-2-fluorophenyl)-3′-fluoro-[1,4′-bipiperidine]-4-carboxamide]: the DC50 is < 0.5 µM.
Take `O=C1CCC(Nc2ccc(C3CCN([C@H]4CC[C@H](NC(=O)[C@H]5CC[C@H](Nc6ncc(F)c(-c7cccc(N8CCOCC8)c7)n6)CC5)CC4)CC3)c(F)c2)C(=O)N1` (stereo partly drawn) [Compound 657, trans-(1r,4R)—N-((1r,4R)-4-(4-(4-((2,6-dioxopiperidin-3-yl)amino)-2-fluorophenyl)piperidin-1-yl)cyclohexyl)-4-((5-fluoro-4-(3-morpholinophenyl)pyrimidin-2-yl)amino)cyclohexane-1-carboxamide]: the DC50 is < 0.5 µM.
Still for that read-out and setting: to `O=C1CCC(Nc2ccc(C3CCN([C@H]4CC[C@H](NC(=O)[C@H]5CC[C@H](Nc6ncc(F)c(-c7cccc(-c8ccccc8)c7)n6)CC5)CC4)CC3)c(F)c2)C(=O)N1` (stereo partly drawn) [Compound 658, trans-(1r,4R)-4-((4-([1,1′-biphenyl]-3-yl)-5-fluoropyrimidin-2-yl)amino)-N-((1r,4R)-4-(4-(4-((2,6-dioxopiperidin-3-yl)amino)-2-fluorophenyl)piperidin-1-yl)cyclohexyl)cyclohexane-1-carboxamide] belongs < 0.5 µM.
The same measure, in the same setting: to `O=C1CCC(Nc2ccc(C3CCN([C@H]4CC[C@H](C(=O)N[C@H]5CC[C@H](Nc6ncc(F)c(-c7cccc(N8CCOCC8)c7)n6)CC5)CC4)CC3)c(F)c2)C(=O)N1` (stereo partly drawn) [Compound 659, trans-(1r,4R)-4-(4-(4-((2,6-dioxopiperidin-3-yl)amino)-2-fluorophenyl)piperidin-1-yl)-N-((1r,4R)-4-((5-fluoro-4-(3-morpholinophenyl)pyrimidin-2-yl)amino)cyclohexyl)cyclohexane-1-carboxamide] belongs < 0.5 µM.

Staying with this assay, now noted: read-out: HiBIT-degradation MOLT4 PIP4k2C DC50 (6 hours, marked *); 6 hours of incubation time, rather than 24 hours; MOLT-4, top concentration 10 micromolar.
For `O=C1CCC(Nc2ccc(N3CCC(N4CC5(CN(C(=O)O[C@H]6CC[C@H](Nc7ncc(F)c(-c8cccc(-n9ccccc9=O)c8)n7)CC6)C5)C4)CC3)c(F)c2)C(=O)N1` (stereo partly drawn) [Compound 652, (trans)-4-((5-fluoro-4-(3-(2-oxopyridin-1 (2H)-yl)phenyl)pyrimidin-2-yl)amino)cyclohexyl 6-(1-(4-((2,6-dioxopiperidin-3-yl)amino)-2-fluorophenyl)piperidin-4-yl)-2,6-diazaspiro[3.3]heptane-2-carboxylate], the DC50 was < 0.5 µM.

Values taken from patent US20260355196A1, “INHIBITORS AND DEGRADERS OF PIP4K PROTEIN” (Larkspur Biosciences, Inc., priority 2023, published 2026).
